Experimental data: a melting point compilation (Tetko et al.; mined from patent text by program, amines drawn as free bases though some values may be those of a salt)

Molecule `Cc1ccc(C2=NN=C(c3ccccc3Cl)N(C)N2)cc1` has a melting point of 152 to 154 °C.
For `Cc1nc(-c2ccc(Cl)cc2)sc1C(=O)N[C@H](C)[C@](O)(Cn1cncn1)c1ccc(F)cc1F`, the melting point was 159 to 160 °C.
`C[C@H](N)Cn1ncc2ccc(C(N)=O)cc21` gave a melting point of 170 to 172 °C.
With `OCC(=C(c1ccc(F)cc1)c1ccc(F)cc1)n1nnnc1-c1ccccc1` the melting point was 197 to 198 °C.
Work on `Cc1[nH]cnc1CSCCN=C(N)NCCNC(N)=NCCSCc1nc[nH]c1C` yielded a melting point of 201 to 203 °C.
`CN(CCCCCC(=O)O)c1ccc(Br)cc1C=O` gave a melting point of 95 to 96 °C.
Work on `C=COCCONC(=O)c1ccc(F)cc1Nc1ccc(I)cc1F` yielded a melting point of 104 °C.
Molecule `CC(C)N1Cc2cccnc2N(c2ccccc2)C1=O` has a melting point of 164 to 165 °C.
With `CC(=O)OCC1OC(OC2OC(CO)C(O)C(O)C2O)C(OC(C)=O)C(OC(C)=O)C1OC(C)=O` (configuration not stated) the melting point was 120 °C.
`COc1ccc(-n2nc(C(F)F)cc2-c2ccc(S(C)(=O)=O)cc2)cc1` showed a melting point of 135 °C.
Molecule `O=C(/C=C/[C@@H]1[C@H]2CC(=O)O[C@H]2C[C@H]1OC(=O)c1ccc(-c2ccccc2)cc1)COc1cccc(C(F)(F)F)c1` has a melting point of 115 to 116 °C.
`OC1CSC(Oc2cccc(-c3cccc(Cl)n3)c2)C(O)C1O` (configuration not stated) gave a melting point of 180 to 222 °C.
For `CNc1c(C)c(C)c(OC(C)=O)c(C)c1N`, the melting point was 113 to 116 °C.
Molecule `COCCn1nnnc1C1(c2cccc(C(F)(F)F)c2)C=CC(O)=CC1O` (configuration not stated) has a melting point of 115 to 156 °C.
In the case of `Cc1cccc(-n2c(-c3cc(-c4ccc(S(C)(=O)=O)cc4)c(N4CCOCC4)s3)nc3ccccc3c2=O)c1`, the melting point is reported as 208 to 210 °C.
`CCC1(CC)CN(C(C)(C)C)C(=O)C(C)(CC)N1OC(C)c1ccccc1` (configuration not stated) showed a melting point of 76 to 79 °C.
In the case of `CCc1nc(-c2cccc(C(=O)O)c2)c(-c2ccnc(N)c2)s1`, the melting point is reported as 273 to 274 °C.
With `NS(=O)(=O)c1ccc(C(=O)Nc2cn3cc(Cl)ccc3n2)cc1` the melting point was over 320 °C.
Work on `COC(=O)NC1=NCC(c2cccc3ccccc23)N1C` (configuration not stated) yielded a melting point of 187 to 190 °C.
For `COc1cc(C(=O)NC2CC(C)(C)N(C)C(C)(C)C2)ccc1-c1nc2cc(Cl)c(Cl)cc2n1C`, the melting point was 178 to 180 °C.
Work on `O=[N+]([O-])c1sccc1Nc1ccccc1` yielded a melting point of 105 °C.
With `CCCc1nn(-c2ccc(C(F)(F)F)cn2)cc1CCCOc1c(CC(=O)O)cccc1C(C)C` the melting point was 102 to 103 °C.
Work on `O=C(O)C(CC(=O)N1CCOCC1)Cc1cccc2ccccc12` (configuration not stated) yielded a melting point of 62 to 66 °C.
Molecule `O=C(Cc1ccccc1Cl)N[C@H]1C[C@H](C(=O)O)Nc2cc(Cl)cc(Cl)c21` (relative stereo) has a melting point of 244 to 245 °C.
With `CCOC(=O)C(=CNc1ccc(F)c(F)c1O)C(=O)OCC` the melting point was 178 to 180 °C.
Work on `CCN1C(=O)C(C)(C)C(=O)N(C)c2cc(CN(CCn3ccc4oc(C)cc4c3=O)Cc3n[nH]c4c(C)cccc34)ccc21` yielded a melting point of 111 to 118 °C.
Work on `Cc1cnn(Cc2ccc3c(c2)-c2[nH]nc(-c4ccsc4)c2C3)c1` yielded a melting point of 262 to 263 °C.
Work on `C[C@@H](n1ncn(-c2ccc(OC(F)(F)F)cc2)c1=O)[C@@]1(c2ccc(F)cc2F)CO1` yielded a melting point of 103 to 106 °C.
For `CCOC(=O)CC(=Cn1cc[nH]c1=O)c1ccc(OC)c(OC2CCCC2)c1`, the melting point was 164 °C.
For `O=c1c2ccccc2nc(-c2cc(-c3ccncc3)c(N3CCOCC3)s2)n1-c1ccc(Cl)cc1`, the melting point was 195 to 197 °C.
Molecule `CCCCc1c(CNC(=O)OC(C)(C)C)c(CC(C)C)nc2ccc(OCc3ccccc3)cc12` has a melting point of 131 to 132 °C.
For `CC(C)(C)C(=O)C(O)C(OS(=O)(=O)C(F)(F)F)C1OC(O)(C(=O)C(C)(C)C)C(O)(C(=O)C(C)(C)C)C1(O)C(=O)C(C)(C)C` (configuration not stated), the melting point was 109 to 112 °C.
For `CC(=O)NCCn1cccc1`, the melting point was 59 to 60 °C.
With `CCOP(=O)(/C=C/c1cn(-c2ccccc2)nc1OCc1ccc(OCc2cn(-c3ccccn3)nc2C)c(OC)c1)OCC` the melting point was 103 to 104 °C.
For `NC(=O)C(CCCCCCCCCCCCC(C(N)=O)C1CC1)C1CC1` (configuration not stated), the melting point was 157 to 158 °C.
In the case of `CNC(=O)c1sc(C(C)(C)C)cc1NC(=O)Nc1ccc(C)cc1`, the melting point is reported as 202 to 204 °C.
Molecule `O=C(O)[C@@H]1C[C@@H](O)CN1C(=O)OCc1ccc([N+](=O)[O-])cc1` has a melting point of 136 to 137 °C.
